# Experimental data published in US20150150266A1, “PESTICIDE COMPOUNDS, USE THEREOF AND METHOD OF PROTECTION OF PLANTS” (AGRA GROUP, A.S., priority 2012, published 2015).
# Marks after values point to notes of the source that are not given here.
# How the values were obtained:
# Fusarium oxysporum = assay: Fungal mycelium growth inhibition assay (agar dilution); type: cell-based; conditions: 7 days at 21° C.
# Description: (§1) The assay for inhibitory activity of compounds of general formula (I) to radial growth and morphological effects to mycelia was carried out in agar by a multiple dilution method. The compound was diluted to concentrations shown in the Table in potato dextrose agar prepared in accordance with manufacturer's instructions. Petri dishes were filled with the thus prepared agar and aseptically inoculated with a disc of the diameter of 0.4 cm cut from a 7-day agar culture of the respective fungus. Controls were prepared in an analogous manner, using sterile distilled water instead of compound of general formula (I). The Petri dishes were incubated for 7 days at 21° C. and then the diameter of the colonies was measured. The percentage of inhibition of radial growth of the respective fungus was calculated according to the following equation: inhibition [%]=(DC-DT)/DC×100, wherein DC is the diameter of control colony and DT is the diameter of the colony grown on the agar containing the respective amount of compound of general formula (I). Standard deviation corresponds to averages from 3 replications.
# (§2) The compound Cu2SO3.CuSO3.2H2O inhibited the growth of all tested mycelia (Table 1). Individual micelia have shown a variation in the sensitivity to the compound and concentration dependency on the fungicide dose was observed.
# [1] = test system: Penicillium brevicompactum; assay: as above; type: cell-based; conditions: 7 days at 21° C.
# Description: as §1, §2
# Aspergillus fumigatus = assay: as above; type: cell-based; conditions: 7 days at 21° C.
# Description: as §1, §2
# Penicillium expansum = assay: as above; type: cell-based; conditions: 7 days at 21° C.
# Description: as §1, §2
# Fusarium verticillioides = assay: as above; type: cell-based; conditions: 7 days at 21° C.
# Description: as §1, §2
# Aspergillus flavus = assay: as above; type: cell-based; conditions: 7 days at 21° C.
# Description: as §1, §2
# Hordeum vulgare L. = assay: Field trial with crops, foliar spraying at BBCH 62; type: in vivo; conditions: for Yield / Yield, % of the control: foliar spraying of wettable powder A; for Yield, % of the control: control = water
# Description: (§3) The experimental field was chosen in a warm region suitable for beet cultivation, with sufficient precipitation, soil type was brown earth. The plants were treated using a common agrotechnology, with the exception of the application of fungicidal protection. […] Water was used as the negative control.
# (§4) At the end of the vegetative season, the crops were harvested and the yield was determined.
# Triticum aestivum L. = assay: Field trial with crops, foliar spraying at BBCH 62; type: in vivo; conditions: for Yield / Yield, % of the control: foliar spraying of wettable powder A; for Yield, % of the control: control = water
# Description: as §3, §4
compound,measurement,setting,value
"O.O.O=S([O-])[O-].O=S([O-])[O-].[Cu+2].[Cu+].[Cu+] [Cu2SO3•CuSO3•2H2O, Cu2SO3.CuSO3.2H2O (Chevreul's salt)]",Percentage of radial growth inhibition,Fusarium oxysporum; 0.3 mg/mL agar,6.72 ± 0.05% ^1)
same,Percentage of radial growth inhibition,Fusarium oxysporum; 0.4 mg/mL agar,59.70 ± 0.16% ^1)
same,Percentage of radial growth inhibition,Fusarium oxysporum; 0.5 mg/mL agar,97.76 ± 0.00%
same,Percentage of radial growth inhibition,[1]; 0.3 mg/mL agar,77.78 ± 0.09%
same,Percentage of radial growth inhibition,[1]; 0.4 mg/mL agar,95.24 ± 0.00%
same,Percentage of radial growth inhibition,[1]; 0.5 mg/mL agar,100.00 ± 0.00%
same,Percentage of radial growth inhibition,Aspergillus fumigatus; 0.3 mg/mL agar,100.00 ± 0.00%
same,Percentage of radial growth inhibition,Aspergillus fumigatus; 0.4 mg/mL agar,100.00 ± 0.00%
same,Percentage of radial growth inhibition,Aspergillus fumigatus; 0.5 mg/mL agar,100.00 ± 0.00%
same,Percentage of radial growth inhibition,Penicillium expansum; 0.3 mg/mL agar,98.37 ± 0.05%
same,Percentage of radial growth inhibition,Penicillium expansum; 0.4 mg/mL agar,96.75 ± 0.05%
same,Percentage of radial growth inhibition,Penicillium expansum; 0.5 mg/mL agar,100.00 ± 0.00%
same,Percentage of radial growth inhibition,Fusarium verticillioides; 0.3 mg/mL agar,−2.81 ± 0.00% ^2)
same,Percentage of radial growth inhibition,Fusarium verticillioides; 0.4 mg/mL agar,19.10 ± 0.16% ^2)
same,Percentage of radial growth inhibition,Fusarium verticillioides; 0.5 mg/mL agar,30.90 ± 0.00% ^2)
same,Percentage of radial growth inhibition,Aspergillus flavus; 0.3 mg/mL agar,97.67 ± 0.05%
same,Percentage of radial growth inhibition,Aspergillus flavus; 0.4 mg/mL agar,98.84 ± 0.05%
same,Percentage of radial growth inhibition,Aspergillus flavus; 0.5 mg/mL agar,100.00 ± 0.00%
same,Yield,"Hordeum vulgare L.; 2011, 125 g/ha",8.65 t/ha
same,"Yield, % of the control","Hordeum vulgare L.; 2011, 125 g/ha",103.2%
same,Yield,"Hordeum vulgare L.; 2011, 625 g/ha",8.73 t/ha
same,"Yield, % of the control","Hordeum vulgare L.; 2011, 625 g/ha",104.2%
same,Phytotoxic effects,"Hordeum vulgare L.; 2011, high dose 625 g/ha",No phytotoxic effects were observed even at this dose
same,Occurrence of fusarioses or other fungal diseases,"Hordeum vulgare L.; field trial, doses of Table 3",neither occurrence of fusarioses or other fungal diseases
same,Phytotoxic effects,"Hordeum vulgare L.; field trial, doses of Table 3",No phytotoxic effects were observed
same,Yield,"Triticum aestivum L.; 2010, 125 g/ha",7.34 t/ha
same,"Yield, % of the control","Triticum aestivum L.; 2010, 125 g/ha",104.7%
same,Yield,"Triticum aestivum L.; 2011, 125 g/ha",8.45 t/ha
same,"Yield, % of the control","Triticum aestivum L.; 2011, 125 g/ha",108.1%
same,Yield,"Triticum aestivum L.; 2011, 625 g/ha",8.60 t/ha
same,"Yield, % of the control","Triticum aestivum L.; 2011, 625 g/ha",110.1%
same,Phytotoxic effects,"Triticum aestivum L.; 2011, high dose 625 g/ha",No phytotoxic effects were observed even at this dose
same,Occurrence of fusarioses or other fungal diseases,"Triticum aestivum L.; field trial, doses of Table 3",neither occurrence of fusarioses or other fungal diseases
same,Phytotoxic effects,"Triticum aestivum L.; field trial, doses of Table 3",No phytotoxic effects were observed
